Read-outs that look alike come from different tables or passages of the source.
B1: γ-IFN: rat recombinant γ-interferon, 100 U/ml, used to increase MHC class I and class II expression in FRTL-5 cells (protein, UniProt P01581 23-156, looked up)
Interferon gamma: QGTLIESLESLKNYFNSSSMDAMEGKSLLLDIWRNWQKDGNTKILESQIISFYLRLFEVLKDNQAISNNISVIESHLITNFFSNSKAKKDAFMSIAKFEVNNPQIQHKAVNELIRVIHQLSPESSLRKRKRSRC

Columns and labels:
[1] = test system: MHC class II antigen expression; assay: Flow cytometry of IFN-increased class II antigen expression in FRTL-5 cells; format: cell-based, rat; conditions: for Concentration to inhibit IFN-increased antigen expression, Class II: 100 U/ml γ-interferon, 6H medium (TSH), 40 hours
Description: […] 13 and 14. Cells were stained with a fluorescein isothiocyanate conjugated class II-specific monoclonal antibody to RT1.B (clone OX-6, Sera Labs, UK) for 60 min at 4° C., washed twice with Dulbecco's phosphate buffered saline, and subjected to laser flow cytometry.
In this experiment 10^6 cells were incubated with MHC class II or MHC class I-specific antibodies as described (Montani, V., et al., ibid (1998b); Saji, M., et al., ibid (1992a); Balducci-Silano, P. L., et al., Endocrinology 139:2309-2313 (1998)). After 30 min on ice, cells were washed with phosphate buffered saline at pH 7.4 and incubated for 30 min with fluorescein-isothiocyanate (FITC)-conjugated antibodies then analyzed by flow cytometry on a FACScan Cytometer using CellQuest software (Becton Dickinson).
The concentration needed to achieve suppression of the interferon induced class I or class II surface expression was determined by testing different concentrations of the compounds (Table 18). Like all other assays, the order of effectiveness was compound 10>11>7 or 8>2>MMI>3.

[2] = test system: swine class I promoter (PD1); assay: Luciferase assay, FRTL-5 cells stably transfected with class I promoter-luciferase chimeras; format: cell-based; conditions: for inhibition at 10 µM / inhibition at 25 µM / inhibition at 100 µM / inhibition at 1000 µM: Sus scrofa
Text: The swine PD1 5′-flanking sequence-CAT chimeras (−1100, −203, and −127), as well as two mutants with the CRE site with −107 to −100 bp deleted (−203ΔCRE and −127ΔCRE) were used to create luciferase reporter gene constructs. The inserts were released by restriction enzyme digestion, purified from agarose gel using QIAEX (QIAGEN, Chatsworth, Calif.) and ligated in the NheI-HindIII site of the PGL-2 basic vector (PROMEGA, Madison, Wis.) using a DNA ligation kit from TAKARA biomedicals (TAKARA SHUZO Co). JM109 bacterial competent cells (PROMEGA, Madison, Wis.) were transformed with the ligation reaction and plated in agar plates for 12 h at 37° C. The colonies were picked and screened with minipreps using QIAprep spin plasmid kit (QIAGEN, Chatsworth, Calif.) and restriction enzyme digestion. The plasmids were then purified by CsCl gradient centrifugation.
The PD1-PGL-2 basic constructs and the Class II-PGL-2 basic constructs were stably transfected in the FRTL-5 cells using a Lipofectamine (GIBCO, Life Technologies, Inc.) method. Near confluent cells in 6H medium were cotransfected with 20 μg of plasmid DNA and 2 μg of a pcDNA3neo or a pPUR selection vector (CLONTECH, Palo Alto, Calif.). After 24-48 hours, 400 μg/ml of G418 (GIBCO, Life Technologies, Inc.) or 10 μM of puromycin (SIGMA) were added to the medium. After 3 weeks the antibiotic-resistant colonies were cloned by limiting dilution and screened to determine their interferon sensitivity. At least 5 cell lines of each construct were isolated, each of whose activity was increased by adding 100 U/ml γ interferon to the medium of the cells. The following data (Tables 10-13) were obtained with one clone of each of the class I or class II-luciferase chimera, but were representative of at least three other clones of each.
Luciferase activity was measured using the Luciferase assay system (PROMEGA, Madison, Wis.). Briefly, treated or untreated cells from a 100 mm culture dish were washed with PBS, scraped and collected in microfuge tubes. The pellet was dissolved in 100 μl 1× reporter lysis buffer and incubated at room temperature for 15 minutes. Cells were frozen in dry ice plus ethanol and thawed in water at room temperature. After vortexing for 10 sec, tubes were centrifuged at 12,000×g for 5 min. Twenty μl of the supernatant were mixed with 100 μl of Luciferase assay reagent and immediately placed in a luminometer. Light was measured for a period of 10 sec after a 2 sec delay.
Treatment of cells, maintained either in the presence of TSH or its absence, with 100 U/ml interferon, increased class I and class II promoter activity (Table 10). In this experiment FRTL-5 cells were grown to 80% confluency in 6H medium with TSH then treated with 100 U/ml γ-interferon, 5 mM MMI or both together. Luciferase activity was measured after 40 hours as described. Several points are notable. First, interferon increases both class I and class II promoter activity in the stable transfectants. Second, MMI inhibits both interferon-increased class I and interferon-increased class II promoter activity.

[3] = FRTL-5, 10 μM, 100 U/ml γ-interferon, 6H medium, 40 hours, read-out: % inhibition of IFN-increased p(−203)LUC class I promoter activity
[4] = FRTL-5, 25 μM, 6H medium, 40 hours, read-out: % inhibition of basal p(−203)LUC class I promoter activity
[5] = FRTL-5, 100 μM, 6H medium, 40 hours, read-out: % inhibition of basal p(−203)LUC class I promoter activity
[6] = FRTL-5, 100 μM, 100 U/ml γ-interferon, 6H medium, 40 hours, read-out: % inhibition of IFN-increased p(−203)LUC class I promoter activity
[7] = FRTL-5, 1.0 mM, 6H medium, 40 hours, read-out: % inhibition of basal p(−203)LUC class I promoter activity
[8] = FRTL-5, 1.0 mM, 100 U/ml γ-interferon, 6H medium, 40 hours, read-out: % inhibition of IFN-increased p(−203)LUC class I promoter activity
[9] = FRTL-5, read-out: % inhibition of IFN-increased p(−203)LUC class I promoter activity
[10] = FRTL-5, read-out: % inhibition of basal p(−203)LUC class I promoter activity

Molecule | Concentration to inhibit IFN-increased antigen expression, Class II [1] | inhibition at 10 µM [2, 3] | inhibition at 25 µM [2, 4] | inhibition at 100 µM [2, 5] | inhibition at 100 µM [2, 6] | inhibition at 1000 µM [2, 7] | inhibition at 1000 µM [2, 8] | also measured
Cn1ccnc1S [Compound 1, 1-Methylimidazole-2-thiol] | 5000 µM | 0% | 0% | 0% | 0% | 0% | 45 ± 10% | endogenous class II antigen expression on the cell surface (flow cytometry, FIG. 12) ([1]; 5 mM MMI with 100 U/ml γ-IFN, 48 hours): decreased endogenous class II antigen expression; effect on basal p(−203) class I luciferase activity ([2]; 1 or 5 mM, stable transfectants): no significant effect; Luciferase activity + 5 mM MMI ([2]; Vector-LUC Control, 40 hours): 100 ± 6 % Control; Luciferase activity +γ-IFN + 5 mM MMI ([2]; Vector-LUC Control, 40 hours): 105 ± 5 % Control; Luciferase activity + 5 mM MMI ([2]; p(−127) class I-LUC, 40 hours): 135 ± 17 % Control; Luciferase activity +γ-IFN + 5 mM MMI ([2]; p(−127ΔCRE) class I-LUC, 40 hours): 101 ± 4 % Control; Luciferase activity + 5 mM MMI ([2]; p(−203) class I-LUC, 40 hours): 105 ± 38 % Control; Luciferase activity +γ-IFN + 5 mM MMI ([2]; p(−203ΔCRE) class I-LUC, 40 hours): 106 ± 6 % Control
Cc1ncc([N+](=O)[O-])n1CCO [Compound 2, 2-Methyl-5-nitro-1-imidazole ethanol] | 1500 ± 1000 µM | 0% | 0% | 0% | 10 ± 6% | 42 ± 6% | 57 ± 5% | 
Sc1ncc[nH]1 [Compound 3, 2-Mercaptoimidazole] | No Inhibition |  | 0% | 0% |  | 0% |  | 
Sc1nc2ccccc2[nH]1 [Compound 4, 2-Mercaptobenzimidazole] |  |  |  |  |  |  |  | inhibition at 10 µM [2, 9]: 0%; inhibition at 100 µM [2, 9]: 0%; inhibition at 1000 µM [2, 9]: 39 ± 6%; inhibition at 25 µM [2, 10]: 0%; inhibition at 100 µM [2, 10]: 0%; inhibition at 1000 µM [2, 10]: 50 ± 5%
O=[N+]([O-])c1ccc2[nH]c(S)nc2c1 [Compound 5, 2-Mercapto-5-nitrobenzimidazole] |  | 0% | 0% | 0% | 0% | 0% | 9 ± 7% | 
Cc1ccc2[nH]c(S)nc2c1 [Compound 6, 2-Mercapto-5-methylbenzimidazole] |  |  | 0% | 0% |  | 0% | 19 ± 10% | 
CSc1nccn1C [Compound 7, S-Methylmethimazole] | 405 ± 15 µM | 0% | 0% | 10 ± 6% | 24 ± 6% | 44 ± 4% | 62 ± 9% | 
Cn1ccn(C)c1=S [Compound 8, N-Methylmethimazole] | 439 ± 93 µM |  |  |  |  |  |  | % inhibition of IFN-increased p(−203)LUC class I promoter activity ([2]; 10 μM, 100 U/ml γ-interferon, 6H medium, 40 hours): 0%; % inhibition of basal p(−203)LUC class I promoter activity ([2]; 25 μM, 6H medium, 40 hours): 9 ± 6%; % inhibition of basal p(−203)LUC class I promoter activity ([2]; 100 μM, 6H medium, 40 hours): 44 ± 10%; % inhibition of IFN-increased p(−203)LUC class I promoter activity ([2]; 100 μM, 100 U/ml γ-interferon, 6H medium, 40 hours): 42 ± 14%; % inhibition of basal p(−203)LUC class I promoter activity ([2]; 1.0 mM, 6H medium, 40 hours): 51 ± 7%; % inhibition of IFN-increased p(−203)LUC class I promoter activity ([2]; 1.0 mM, 100 U/ml γ-interferon, 6H medium, 40 hours): 77 ± 10%
Cc1cnc(S)n1C [Compound 9, 5-Methylmethimazole] |  | 0% | 0% | 0% | 0% | 10 ± 10% | 15 ± 11% | 
Cn1c(-c2ccccc2)cnc1S [Compound 10, 5-Phenylmethimazole] | 54 ± 11 µM | 45 ± 7% | 41 ± 5% | 51 ± 3% | 90 ± 17% | 52 ± 8% | 90 ± 13% | 
B1 |  |  |  |  |  |  |  | Luciferase activity +γ-IFN ([2]; Vector-LUC Control, 100 U/ml γ-interferon, 40 hours): 102 ± 6 % Control; Luciferase activity +γ-IFN ([2]; p(−127) class I-LUC, 100 U/ml γ-interferon, 40 hours): 180 ± 19 % Control; Luciferase activity +γ-IFN ([2]; p(−127ΔCRE) class I-LUC, 100 U/ml γ-interferon, 40 hours): 92 ± 10 % Control; Luciferase activity +γ-IFN ([2]; p(−203) class I-LUC, 100 U/ml γ-interferon, 40 hours): 495 ± 30 % Control; Luciferase activity +γ-IFN ([2]; p(−203ΔCRE) class I-LUC, 100 U/ml γ-interferon, 40 hours): 139 ± 16 % Control
